Source: PubChem BioAssay AID2060342 (Molecular Pharmacology Branch, DTP, NCI, 2025)

System: 171881-019-R-J1-PDC multicell spheroid viability
Experiment: Anticancer human tumor 171881-019-R-J1-PDC patient-derived invasive breast carcinoma cell line growth inhibition [IpAb]
Conditions: for IC50: curve of first compound; for viability, T/C: stronger effect = lower value
Method in brief: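 Spheroids of 60% malignant cells, 25% HUVEC and 15% MSC were exposed to targeted agents combined with ipatasertib or abemaciclib. Doses started at or near clinical Cmax (10 microM when unknown) and fell in half-log steps.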
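Also: spheroids exposed to the agents for seven days before readout.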

Question: For `C=CC(=O)N1CCN(c2nc(=O)n(-c3c(C)ccnc3C(C)C)c3nc(-c4c(O)cccc4F)c(F)cc23)C(C)C1` (stereo not given) + CC(C)NCC(C(=O)N1CCN(c2ncnc3c2C(C)CC3O)CC1)c1ccc(Cl)cc1, which IC50 (second compound 0.1 µM) is on record?
Answer: The IC50 was 5260 nM.

Question: What about the IC50 (second compound 0.316 µM) of the same molecule?
Answer: Its IC50 is 1830 nM.

Question: What about the IC50 (second compound 1 µM) of the same molecule?
Answer: The IC50 was under 31.6 nM.

Question: What about the IC50 (second compound 3.16 µM) of the same molecule?
Answer: The IC50 was under 31.6 nM.

Question: What about the IC50 (second compound 10 µM) of the same molecule?
Answer: Its IC50 is under 31.6 nM.

Question: What about the viability, T/C (second compound 0.1 µM, first compound 0.0316 µM) of the same molecule?
Answer: Its viability, T/C is 102%.

Question: And the viability, T/C (second compound 0.1 µM, first compound 0.1 µM)?
Answer: Its viability, T/C is 87.7%.

Question: And the viability, T/C (second compound 0.1 µM, first compound 0.316 µM)?
Answer: Its viability, T/C is 90%.

Question: What about the viability, T/C (second compound 0.1 µM, first compound 1 µM) of the same molecule?
Answer: The viability, T/C was 95.9%.

Question: And the viability, T/C (second compound 0.1 µM, first compound 3.16 µM)?
Answer: Its viability, T/C is 74.2%.

Question: What about the viability, T/C (second compound 0.1 µM, first compound 10 µM) of the same molecule?
Answer: The viability, T/C was 19.5%.

Question: And the viability, T/C (second compound 0.316 µM, first compound 0.0316 µM)?
Answer: The viability, T/C was 74.1%.

Question: What about the viability, T/C (second compound 0.316 µM, first compound 0.1 µM) of the same molecule?
Answer: The viability, T/C was 67%.

Question: And the viability, T/C (second compound 0.316 µM, first compound 0.316 µM)?
Answer: The viability, T/C was 69%.

Question: What about the viability, T/C (second compound 0.316 µM, first compound 1 µM) of the same molecule?
Answer: The viability, T/C was 64.7%.

Question: What about the viability, T/C (second compound 0.316 µM, first compound 3.16 µM) of the same molecule?
Answer: The viability, T/C was 36.8%.

Question: What about the viability, T/C (second compound 0.316 µM, first compound 10 µM) of the same molecule?
Answer: The viability, T/C was 13.2%.

Question: What about the viability, T/C (second compound 1 µM, first compound 0.0316 µM) of the same molecule?
Answer: The viability, T/C was 24.6%.

Question: What about the viability, T/C (second compound 1 µM, first compound 0.1 µM) of the same molecule?
Answer: Its viability, T/C is 26.6%.

Question: And the viability, T/C (second compound 1 µM, first compound 0.316 µM)?
Answer: The viability, T/C was 25.9%.

Question: What about the viability, T/C (second compound 1 µM, first compound 1 µM) of the same molecule?
Answer: The viability, T/C was 22.1%.

Question: What about the viability, T/C (second compound 1 µM, first compound 3.16 µM) of the same molecule?
Answer: Its viability, T/C is 17.3%.

Question: And the viability, T/C (second compound 1 µM, first compound 10 µM)?
Answer: The viability, T/C was 7.56%.

Question: And the viability, T/C (second compound 3.16 µM, first compound 0.0316 µM)?
Answer: Its viability, T/C is 10.2%.

Question: What about the viability, T/C (second compound 3.16 µM, first compound 0.1 µM) of the same molecule?
Answer: Its viability, T/C is 11.7%.

Question: What about the viability, T/C (second compound 3.16 µM, first compound 0.316 µM) of the same molecule?
Answer: The viability, T/C was 10.2%.

Question: What about the viability, T/C (second compound 3.16 µM, first compound 1 µM) of the same molecule?
Answer: The viability, T/C was 11.5%.

Question: And the viability, T/C (second compound 3.16 µM, first compound 3.16 µM)?
Answer: Its viability, T/C is 8.09%.

Question: And the viability, T/C (second compound 3.16 µM, first compound 10 µM)?
Answer: Its viability, T/C is 4.11%.

Question: And the viability, T/C (second compound 10 µM, first compound 0.0316 µM)?
Answer: Its viability, T/C is 5.17%.

Question: And the viability, T/C (second compound 10 µM, first compound 0.1 µM)?
Answer: Its viability, T/C is 5.24%.

Question: What about the viability, T/C (second compound 10 µM, first compound 0.316 µM) of the same molecule?
Answer: The viability, T/C was 6.38%.

Question: What about the viability, T/C (second compound 10 µM, first compound 1 µM) of the same molecule?
Answer: Its viability, T/C is 5.65%.

Question: What about the viability, T/C (second compound 10 µM, first compound 3.16 µM) of the same molecule?
Answer: Its viability, T/C is 5.64%.

Question: What about the viability, T/C (second compound 10 µM, first compound 10 µM) of the same molecule?
Answer: The viability, T/C was 3.86%.

Question: How did the IC50 (second compound 0.1 µM) turn out when `CC(=O)c1c(C)c2cnc(Nc3ccc(N4CCNCC4)cn3)nc2n(C2CCCC2)c1=O` + CC(C)NCC(C(=O)N1CCN(c2ncnc3c2C(C)CC3O)CC1)c1ccc(Cl)cc1 was run?
Answer: Its IC50 is over 300 nM.

Question: And the IC50 (second compound 0.316 µM)?
Answer: The IC50 was over 300 nM.

Question: What about the IC50 (second compound 1 µM) of the same molecule?
Answer: The IC50 was under 0.949 nM.

Question: What about the IC50 (second compound 3.16 µM) of the same molecule?
Answer: Its IC50 is under 0.949 nM.

Question: And the IC50 (second compound 10 µM)?
Answer: Its IC50 is under 0.949 nM.

Question: And the viability, T/C (second compound 0.1 µM, first compound 0.000949 µM)?
Answer: The viability, T/C was 98.8%.

Question: What about the viability, T/C (second compound 0.1 µM, first compound 0.003 µM) of the same molecule?
Answer: Its viability, T/C is 112%.

Question: What about the viability, T/C (second compound 0.1 µM, first compound 0.00949 µM) of the same molecule?
Answer: The viability, T/C was 94%.

Question: And the viability, T/C (second compound 0.1 µM, first compound 0.03 µM)?
Answer: Its viability, T/C is 106%.

Question: What about the viability, T/C (second compound 0.1 µM, first compound 0.0949 µM) of the same molecule?
Answer: The viability, T/C was 103%.

Question: And the viability, T/C (second compound 0.1 µM, first compound 0.3 µM)?
Answer: Its viability, T/C is 93.5%.

Question: What about the viability, T/C (second compound 0.316 µM, first compound 0.000949 µM) of the same molecule?
Answer: Its viability, T/C is 83.3%.

Question: And the viability, T/C (second compound 0.316 µM, first compound 0.003 µM)?
Answer: Its viability, T/C is 84.8%.

Question: And the viability, T/C (second compound 0.316 µM, first compound 0.00949 µM)?
Answer: The viability, T/C was 77.4%.

Question: And the viability, T/C (second compound 0.316 µM, first compound 0.03 µM)?
Answer: Its viability, T/C is 76.1%.

Question: And the viability, T/C (second compound 0.316 µM, first compound 0.0949 µM)?
Answer: The viability, T/C was 64.6%.

Question: What about the viability, T/C (second compound 0.316 µM, first compound 0.3 µM) of the same molecule?
Answer: Its viability, T/C is 59.6%.

Question: What about the viability, T/C (second compound 1 µM, first compound 0.000949 µM) of the same molecule?
Answer: Its viability, T/C is 30.8%.

Question: And the viability, T/C (second compound 1 µM, first compound 0.003 µM)?
Answer: The viability, T/C was 26.1%.

Question: What about the viability, T/C (second compound 1 µM, first compound 0.00949 µM) of the same molecule?
Answer: Its viability, T/C is 27.8%.

Question: And the viability, T/C (second compound 1 µM, first compound 0.03 µM)?
Answer: The viability, T/C was 25.9%.

Question: What about the viability, T/C (second compound 1 µM, first compound 0.0949 µM) of the same molecule?
Answer: Its viability, T/C is 26.1%.

Question: And the viability, T/C (second compound 1 µM, first compound 0.3 µM)?
Answer: Its viability, T/C is 23.9%.

Question: And the viability, T/C (second compound 3.16 µM, first compound 0.000949 µM)?
Answer: The viability, T/C was 12.4%.

Question: And the viability, T/C (second compound 3.16 µM, first compound 0.003 µM)?
Answer: The viability, T/C was 11.8%.

Question: What about the viability, T/C (second compound 3.16 µM, first compound 0.00949 µM) of the same molecule?
Answer: Its viability, T/C is 12.2%.

Question: And the viability, T/C (second compound 3.16 µM, first compound 0.03 µM)?
Answer: Its viability, T/C is 10.2%.

Question: And the viability, T/C (second compound 3.16 µM, first compound 0.0949 µM)?
Answer: Its viability, T/C is 9.89%.

Question: What about the viability, T/C (second compound 3.16 µM, first compound 0.3 µM) of the same molecule?
Answer: The viability, T/C was 9.65%.

Question: And the viability, T/C (second compound 10 µM, first compound 0.000949 µM)?
Answer: The viability, T/C was 6.66%.

Question: What about the viability, T/C (second compound 10 µM, first compound 0.003 µM) of the same molecule?
Answer: Its viability, T/C is 6.56%.

Question: And the viability, T/C (second compound 10 µM, first compound 0.00949 µM)?
Answer: The viability, T/C was 6.69%.

Question: What about the viability, T/C (second compound 10 µM, first compound 0.03 µM) of the same molecule?
Answer: The viability, T/C was 5.87%.

Question: What about the viability, T/C (second compound 10 µM, first compound 0.0949 µM) of the same molecule?
Answer: Its viability, T/C is 5.79%.

Question: What about the viability, T/C (second compound 10 µM, first compound 0.3 µM) of the same molecule?
Answer: The viability, T/C was 5.34%.
